Laboratory results: patent US6579849B2, “Antibiotic peptides from bovine milk” (HaemoPep Pharma GmbH, priority 1998, dated 2003)
Like-named read-outs stand apart in the source and are kept apart here.

Columns and labels:
[1] = test system: S. carnosus; assay: Preincubation experiment (determination of CFU); type: cell-based, Staphylococcus carnosus; settings: incubated at 37° C. for 120 min, interpolated from FIG. 3
Procedure: (§1) Exponentially grown bacteria with a density corresponding to an A600 of 0.4 to 0.6, were initially diluted 1:10^5 in 10 mM phosphate buffer (Na—P, pH 7.2) or phosphate buffered saline (PBS, pH 7.4) and incubated at 37° C. for 120 min in Na—P or PBS supplemented with different concentrations of peptides. After this period the reaction mixtures were diluted 1:10 and 1:100 in the same buffer and plated on LB-Agar to determine the colony forming units (CFU). The plating were done in triplets. The colonies were counted with a colony counter (Darkfield, Quebec, Canada).
(§2) An example for the depletion of viable bacteria gives FIG. 2 showing that a time dependent killing of the bacteria during incubation occurs. The interpolation of the date gives the following order of sensitivity of the used strains B. subtilis>S. carnosus=S. epidermidis>Rhodotorula >>E. coli>Enterococcus faecium ATCC 35667. The concentration necessary to reduce the colony forming units (CFU) to 50% of the initial CFU ranges from 180 μg/ml (E. faecium) over 20 μg/ml (E. coli, S. carnosus, R. rubra) to 1 μg/ml for B. subtilis indicating a potent inhibitory effect of the used peptide.

[2] = test system: R. rubra; assay: Preincubation experiment (determination of CFU); type: cell-based, Rhodotorula rubra; settings: incubated at 37° C. for 120 min, interpolated from FIG. 3
Procedure: as §1, §2

[3] = test system: S. carnosus; type: cell-based, Staphylococcus carnosus
Procedure: To determine the minimal inhibitory concentration of casocidin-I under the influence of the medium strength or in the presence of bivalent cations, a dilution assay was performed in 96-well cell culture clusters. After diluting the peptide in 50 μl medium (tryptic soy broth, Sigma, Germany) with adjusted pH 7.2, ion concentrations or medium strength on one plate, the same amount of medium with appr. 2-4*10^3 bacteria in 50 μl medium were added to the diluted samples. The incubations were done overnight at 37° C. The minimal inhibitory concentration was manually read using a microscope.

[4] = test system: E. coli; assay: Preincubation experiment (determination of CFU); type: cell-based; settings: incubated at 37° C. for 120 min, interpolated from FIG. 3
Procedure: as §1, §2

[5] = test system: Enterococcus faecium ATCC 35667; assay: Preincubation experiment (determination of CFU); type: cell-based; settings: E. faecium; incubated at 37° C. for 120 min; interpolated from FIG. 3
Procedure: as §1, §2

[6] = test system: B. subtilis; assay: Preincubation experiment (determination of CFU); type: cell-based; settings: incubated at 37° C. for 120 min, interpolated from FIG. 3
Procedure: as §1, §2

[7] = test system: E. coli transformed with the plasmid pUC18; assay: Membrane permeabilization, release of beta-galactosidase and beta-lactamase; type: cell-based; settings: 37° C. for 30 min, FIG. 5
Procedure: The beta-galactosidase indicated the degree of the permeabilization of the inner membrane (IM) of E. coli. The permeabilization of the outer membrane was monitored by determination of released beta-Lactamase (plasmid coded) mainly present in the periplasmatic space.
To measure the relative release of beta-galactosidase a suspension of E. coli grown overnight in LB medium was washed once in phosphate buffer (10 mM, pH 7.0). Afterwards the bacteria were resuspended to a final density of app. 0.5 A600. Peptide fractions were lyophilized in 1.5 ml tubes in a speed vac concentrator and solved in 40 μl phosphate buffer. To the peptide solution a volume of 200 μl bacterial suspension was added and the incubation was performed at 37° C. for 30 min. As a control, to determine the maximum of the enzyme release, bacteria were disrupted by ultrasonic treatment (about 100 joules in 10 sec). […] The absorbance of the samples at 405 nm was measured and the increase of each absorbance was normalized to the sonified sample assuming enzymatic release of 100%.
To detect the release of beta-lactamase the supernatants of E. coli were prepared as described for the beta-galactosi-dase. […] The samples were incubated for 45 min at 37° C. in the dark and the absorbance was measured at a wavelength of 700 nm and the normalization was done with the results gained with sonified samples.

[8] = Storage of lyophilized peptide; type: physicochemical; settings: room temperature
[9] = test system: bacteria; assay: Antibacterial / antimicrobial effect of comparison peptides; type: cell-based

Compound | concentration necessary to reduce the colony forming units (CFU) to 50% of the initial CFU [1] [µg/mL] | concentration necessary to reduce the colony forming units (CFU) to 50% of the initial CFU [2] [µg/mL] | MIC ([3]; bivalent cation 2.5 mM Ca) | MIC ([3]; bivalent cation 2.5 mM Mn) | MIC ([3]; medium strength 1 (tryptic soy broth, pH 7.2)) | concentration necessary to reduce the colony forming units (CFU) to 50% of the initial CFU [4] [µg/mL] | concentration necessary to reduce the colony forming units (CFU) to 50% of the initial CFU [5] [µg/mL] | concentration necessary to reduce the colony forming units (CFU) to 50% of the initial CFU [6] [µg/mL] | mechanism of action: release of intracellular enzymes beta-galactosidase and beta-lactamase [7] | potency when lyophilized, storage [8] | antibacterial / antimicrobial effect [9]
CC[C@H](C)[C@H](NC(=O)[C@H](CCCCN)NC(=O)[C@H](CCCCN)NC(=O)[C@H](CC(C)C)NC(=O)[C@H](Cc1ccccc1)NC(=O)[C@H](CC(N)=O)NC(=O)[C@H](CC(C)C)NC(=O)[C@H](CCCNC(=N)N)NC(=O)[C@H](CC(N)=O)NC(=O)[C@H](CCCCN)NC(=O)[C@H](CCC(=O)O)NC(=O)[C@H](CCC(=O)O)NC(=O)[C@H](CCC(=O)O)NC(=O)[C@@H](NC(=O)[C@H](CC(C)C)NC(=O)[C@H](CCCCN)NC(=O)[C@@H](NC(=O)[C@@H](N)CCCCN)[C@@H](C)O)[C@@H](C)O)C(=O)N[C@@H](CO)C(=O)N[C@@H](CCC(N)=O)C(=O)N[C@@H](CCCNC(=N)N)C(=O)N[C@@H](Cc1ccc(O)cc1)C(=O)N[C@@H](CCC(N)=O)C(=O)N[C@@H](CCCCN)C(=O)N[C@@H](Cc1ccccc1)C(=O)N[C@@H](C)C(=O)N[C@@H](CC(C)C)C(=O)N1CCC[C@H]1C(=O)N[C@@H](CCC(N)=O)C(=O)N[C@@H](Cc1ccc(O)cc1)C(=O)N[C@@H](CC(C)C)C(=O)N[C@@H](CCCCN)C(=O)N[C@H](C(=O)N[C@H](C(=O)N[C@@H](Cc1ccc(O)cc1)C(=O)N[C@@H](CCC(N)=O)C(=O)N[C@@H](Cc1c[nH]cn1)C(=O)N[C@@H](CCC(N)=O)C(=O)N[C@@H](CCCCN)C(=O)O)C(C)C)[C@@H](C)O [casocidin-I] | 20 | 20 | no | no | no | 20 | 180 | 1 | membrane permeabilizing effect | keeps its potency when lyophilized | 
QRYQ |  |  |  |  |  |  |  |  |  |  | not sufficient to gain antimicrobial properties
